# Results as given in patent US20240343733A1, “COMPOUNDS FOR TARGETING DEGRADATION OF IRAK4 PROTEINS” (BIOGEN MA INC., priority 2021, published 2024).
# Target: T1, IRAK4 (Homo sapiens, UniProt Q9NWZ3)
# T1 construct: 293Tcells expressing HiBiT-tagged IRAK4 were then added into 384-well plates
# T1 sequence (Q9NWZ3 1-460): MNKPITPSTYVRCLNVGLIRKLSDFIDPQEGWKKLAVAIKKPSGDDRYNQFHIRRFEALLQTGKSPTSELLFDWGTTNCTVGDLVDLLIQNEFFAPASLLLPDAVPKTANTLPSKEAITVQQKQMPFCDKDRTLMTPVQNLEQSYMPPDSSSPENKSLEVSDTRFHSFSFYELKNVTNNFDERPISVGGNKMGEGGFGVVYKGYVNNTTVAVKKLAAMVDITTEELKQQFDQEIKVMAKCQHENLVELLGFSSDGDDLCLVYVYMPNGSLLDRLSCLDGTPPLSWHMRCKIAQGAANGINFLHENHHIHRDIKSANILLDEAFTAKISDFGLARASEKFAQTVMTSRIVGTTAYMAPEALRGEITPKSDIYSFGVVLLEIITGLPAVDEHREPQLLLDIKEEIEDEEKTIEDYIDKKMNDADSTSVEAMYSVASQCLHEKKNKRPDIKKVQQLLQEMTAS
# Experiment: IRAK4 Degradation Assay, HiBiT Method
# Format: cell-based
# Settings: 293T cells expressing HiBiT-tagged IRAK4, 6 hours
# How it was run: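 293T cells with HiBiT knocked in at the C-terminus of endogenous IRAK4, 10,000 per well, treated 6 h at 37 °C with an 11-point half-log series ([…]), in duplicate. Remaining IRAK4 read by Nano-Glo HiBiT lytic luminescence against DMSO-only and media-only controls.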
row,Structure (SMILES),DC50
1,"CO[C@H]1CN(C[C@H]2CC[C@H](n3cc4cc(C(=O)Nc5cccn([C@H]6C[C@H]6F)c5=O)c(OC(C)C)cc4n3)CC2)CC[C@H]1c1ccc2c(N3CCC(=O)NC3=O)nn(C)c2c1 [Example 134, 2-((1R,4S)-4-(((3R,4S)-4-(3-(2,4-dioxotetrahydropyrimidin-1(2H)-yl)-1-methyl-1H-indazol-6-yl)-3-methoxypiperidin-1-yl)methyl)cyclohexyl)-N-(1-((1S,2R)-2-fluorocyclopropyl)-2-oxo-1,2-dihydropyridin-3-yl)-6-isopropoxy-2H-indazole-5-carboxamide]",< 10 nM
2,"CC(C)Oc1cc2nc([C@H]3CC[C@H](CN4CCC(c5cc6c(cc5F)c(N5CCC(=O)NC5=O)nn6C)C(F)(F)C4)CC3)cn2cc1C(=O)Nc1cnn2cccnc12 (stereo partly shown) [Example 170, 2-((1r,4r)-4-((4-(3-(2,4-dioxotetrahydropyrimidin-1(2H)-yl)-5-fluoro-1-methyl-1H-indazol-6-yl)-3,3-difluoropiperidin-1-yl)methyl)cyclohexyl)-7-isopropoxy-N-(pyrazolo[1,5-a]pyrimidin-3-yl)imidazo[1,2-a]pyridine-6-carboxamide]",10 to 100 nM
3,"CC(C)Oc1cc2nn([C@H]3CC[C@H](CN4CCN(c5ccc6c(N7CCC(=O)NC7=O)cnn6c5)CC4)CC3)cc2cc1C(=O)Nc1cccn([C@H]2C[C@H]2F)c1=O [Example 145, 2-((1r,4S)-4-((4-(3-(2,4-dioxotetrahydropyrimidin-1(2H)-yl)pyrazolo[1,5-a]pyridin-6-yl)piperazin-1-yl)methyl)cyclohexyl)-N-(1-((1S,2R)-2-fluorocyclopropyl)-2-oxo-1,2-dihydropyridin-3-yl)-6-isopropoxy-2H-indazole-5-carboxamide]",< 10 nM
4,"CC(C)Oc1cc2nn(C3CCN(C(=O)CC4(O)CCN(c5cc(F)c(NC6CCC(=O)NC6=O)cc5F)CC4)CC3)cc2cc1C(=O)Nc1cccc(C(F)F)n1 (stereo not shown) [Example 66, N-(6-(difluoromethyl)pyridin-2-yl)-2-(1-(2-(1-(4-((2,6-dioxopiperidin-3-yl)amino)-2,5-difluorophenyl)-4-hydroxypiperidin-4-yl)acetyl)piperidin-4-yl)-6-isopropoxy-2H-indazole-5-carboxamide]",10 to 100 nM
5,"CC(C)Oc1cc2nc([C@H]3CC[C@H](CN4CCC(c5ccc6c(c5)n(C)c(=O)n6C5CCC(=O)NC5=O)C(F)(F)C4)CC3)cn2cc1C(=O)Nc1cccn([C@H]2C[C@H]2F)c1=O (stereo partly drawn) [Example 168, 2-((1r,4S)-4-((4-(1-(2,6-dioxopiperidin-3-yl)-3-methyl-2-oxo-2,3-dihydro-1H-benzo[d]imidazol-5-yl)-3,3-difluoropiperidin-1-yl)methyl)cyclohexyl)-N-(1-((1S,2R)-2-fluorocyclopropyl)-2-oxo-1,2-dihydropyridin-3-yl)-7-isopropoxyimidazo[1,2-a]pyridine-6-carboxamide]",10 to 100 nM
6,"CC(C)Oc1cc2nc(C3CCN(C(=O)CN4CCC(c5ccc(C6(F)CCC(=O)NC6=O)cc5)CC4)CC3)cn2cc1C(=O)Nc1cnn2cccnc12 (stereo not shown) [Example 89, 2-[1-[2-[4-[4-(3-fluoro-2,6-dioxo-3-piperidyl)phenyl]-1-piperidyl]acetyl]-4-piperidyl]-7-isopropoxy-N-pyrazolo[1,5-a]pyrimidin-3-yl-imidazo[1,2-a]pyridine-6-carboxamide]",< 10 nM
7,"CC(C)Oc1cc2nc([C@H]3CC[C@H](CN(C)C4CCN(Cc5cccc(NC6CCC(=O)NC6=O)c5)CC4)CC3)cn2cc1C(=O)Nc1cccc(C(F)(F)F)n1 (stereo partly shown) [Example 14, 2-[4-[[[1-[[3-[(2,6-dioxo-3-piperidyl)amino]phenyl]methyl]-4-piperidyl]-methyl-amino]methyl]cyclohexyl]-7-isopropoxy-N-[6-(trifluoromethyl)-2-pyridyl]imidazo[1,2-a]pyridine-6-carboxamide]",500 to 1000 nM
8,"CC(C)Oc1cc2nc(C3CCN(C(=O)CC4(O)CCN(c5cc(F)c(NC6CCC(=O)NC6=O)cc5F)CC4)CC3)cn2cc1C(=O)Nc1cccc(C(F)(F)F)n1 (stereo not shown) [Example 74, 2-[1-[2-[1-[4-[(2,6-dioxo-3-piperidyl)amino]-2,5-difluoro-phenyl]-4-hydroxy-4-piperidyl]acetyl]-4-piperidyl]-7-isopropoxy-N-[6-(trifluoromethyl)-2-pyridyl]imidazo[1,2-a]pyridine-6-carboxamide]",10 to 100 nM
9,"CC(C)Oc1cc2nc(C3CCN(C(=O)CC4(O)CCN(c5c(F)cc(N[C@H]6CCC(=O)NC6=O)cc5Cl)CC4)CC3)cn2cc1C(=O)Nc1cccc(C(F)F)n1 [Example 82, 2-[1-[2-[1-[2-chloro-4-[[(3S)-2,6-dioxo-3-piperidyl]amino]-6-fluoro-phenyl]-4-hydroxy-4-piperidyl]acetyl]-4-piperidyl]-N-[6-(difluoromethyl)-2-pyridyl]-7-isopropoxy-imidazo[1,2-a]pyridine-6-carboxamide]",10 to 100 nM
10,"CC(C)Oc1cc2nn([C@H]3CC[C@H](CN4CCC(c5ccc(OC6CCC(=O)NC6=O)cc5)CC4)CC3)cc2cc1C(=O)Nc1cccn([C@H]2C[C@H]2F)c1=O (stereo partly drawn) [Example 141, 2-((1r,4S)-4-((4-(4-((2,6-dioxopiperidin-3-yl)oxy)phenyl)piperidin-1-yl)methyl)cyclohexyl)-N-(1-((1S,2R)-2-fluorocyclopropyl)-2-oxo-1,2-dihydropyridin-3-yl)-6-isopropoxy-2H-indazole-5-carboxamide]",< 10 nM
11,CC(C)Oc1cc2nc([C@H]3CC[C@H](CNCC4(O)CCN(c5ncc(C6CCC(=O)NC6=O)cc5F)CC4)CC3)cn2cc1C(=O)Nc1cnn2cccnc12 (stereo partly shown) [Example 176],< 10 nM
12,"CC(C)Oc1cc2nn(C3CCN(C(=O)CN4CCC(c5ccc(C6CCC(=O)NC6=O)cc5)CC4)CC3)cc2cc1C(=O)Nc1cnn2cccnc12 (stereo not shown) [Example 56, 2-(1-(2-(4-(4-(2,6-dioxopiperidin-3-yl)phenyl)piperidin-1-yl)acetyl)piperidin-4-yl)-6-isopropoxy-N-(pyrazolo[1,5-a]pyrimidin-3-yl)-2H-indazole-5-carboxamide]",< 10 nM
13,"CC(C)Oc1cc2nc([C@H]3CC[C@H](CN(C)C4CCN(c5ccc6c(c5)n(C)c(=O)n6C5CCC(=O)NC5=O)CC4)CC3)cn2cc1C(=O)Nc1cccc(C(F)F)n1 (stereo partly shown) [Example 27, N-[6-(difluoromethyl)-2-pyridyl]-2-[4-[[[1-[1-(2,6-dioxo-3-piperidyl)-3-methyl-2-oxo-benzimidazol-5-yl]-4-piperidyl]-methyl-amino]methyl]cyclohexyl]-7-isopropoxy-imidazo[1,2-a]pyridine-6-carboxamide]",10 to 100 nM
14,"Cc1cn(C2CCC(=O)NC2=O)c2ccc(C3CCN(C[C@H]4CC[C@H](c5cn6cc(C(=O)Nc7cccc(C(F)F)n7)c(OC(C)C)cc6n5)CC4)CC3)cc12 (stereo partly shown) [Example 44, N-[6-(difluoromethyl)-2-pyridyl]-2-[4-[[4-[1-(2,6-dioxo-3-piperidyl)-3-methyl-indol-5-yl]-1-piperidyl]methyl]cyclohexyl]-7-isopropoxy-imidazo[1,2-a]pyridine-6-carboxamide]",10 to 100 nM
15,"CC(C)Oc1cc2nc([C@H]3CC[C@H](CN(C)C4CCN(c5cccc(NC6CCC(=O)NC6=O)c5)CC4)CC3)cn2cc1C(=O)Nc1cccc(C(F)F)n1 (stereo partly shown) [Example 24, N-[6-(difluoromethyl)-2-pyridyl]-2-[4-[[[1-[3-[(2,6-dioxo-3-piperidyl)amino]phenyl]-4-piperidyl]-methyl-amino]methyl]cyclohexyl]-7-isopropoxy-imidazo[1,2-a]pyridine-6-carboxamide]",10 to 100 nM
16,"CC(C)Oc1cc2nc(C3CCC(CN4CC[C@H](c5cc6c(cc5F)c(N5CCC(=O)NC5=O)nn6C)[C@H](O)C4)CC3)cn2cc1C(=O)Nc1cccn([C@H]2C[C@H]2F)c1=O (stereo partly drawn) [Example 185, 2-((1S,4S)-4-(((3S,4R)-4-(3-(2,4-dioxotetrahydropyrimidin-1(2H)-yl)-5-fluoro-1-methyl-1H-indazol-6-yl)-3-hydroxypiperidin-1-yl)methyl)cyclohexyl)-N-(1-((1S,2R)-2-fluorocyclopropyl)-2-oxo-1,2-dihydropyridin-3-yl)-7-isopropoxyimidazo[1,2-a]pyridine-6-carboxamide]",< 10 nM
17,CC(C)Oc1cc2nc([C@H]3CC[C@](F)(CN4CCC(c5ccc6c(c5)n(C)c(=O)n6C5CCC(=O)NC5=O)CC4)CC3)cn2cc1C(=O)Nc1cccn([C@H]2C[C@H]2F)c1=O (stereo partly shown) [Example 194],10 to 100 nM
18,"CC(C)Oc1cc2nc(C3CCN(C(=O)CN4CCC(c5ccc(NC6CCC(=O)NC6=O)nc5)CC4)CC3)cn2cc1C(=O)Nc1cccc(C(F)F)n1 (stereo not shown) [Example 86, N-[6-(difluoromethyl)-2-pyridyl]-2-[1-[2-[4-[6-[(2,6-dioxo-3-piperidyl)amino]-3-pyridyl]-1-piperidyl]acetyl]-4-piperidyl]-7-isopropoxy-imidazo[1,2-a]pyridine-6-carboxamide]",10 to 100 nM
19,"CC(C)Oc1cc2nc([C@H]3CC[C@H](CN4CCC(c5ccc(C6CCC(=O)NC6=O)cc5)CC4)CC3)cn2cc1C(=O)Nc1cccc(C(F)(F)F)n1 (stereo partly shown) [Example 4, 2-[4-[[4-[4-(2,6-dioxo-3-piperidyl)phenyl]-1-piperidyl]methyl]cyclohexyl]-7-isopropoxy-N-[6-(trifluoromethyl)-2-pyridyl]imidazo[1,2-a]pyridine-6-carboxamide]",500 to 1000 nM
